“And” between values parts separate entries of the source, which are not always exact repeats. Equal entries are not always repeated.
Assays:
[1] = tested on: wild-type N2 Bristol strain of C. elegans; assay: C. elegans longevity study (Example 4); assay type: in vivo; conditions: for longevity and survival (longevity effect): wild type C. elegans, lithium carbonate 0.15 or 15 μM
Procedure: In this fourth Example, the effect of treatment with lithium and Glycyrrhizic acid separately, and as a fixed combination, was further evaluated on the wild-type N2 Bristol strain of C. elegans. Worm stocks were maintained on nematode growth medium (NGM) dishes containing 10 μg/mL cholesterol (Cat. No. C8667; Sigma-Aldrich, Saint Louis, Mo., USA). Dishes were seeded with OP50 Escherichia coli as a food source. Twelve polystyrene petri dishes (35 mm diameter) were prepared by filling with NGM agar containing […] cholesterol, and 25 μM 5-Fluoro-2′-deoxyuridine to suppress reproduction (FUDR; Cat. No. F0503; Sigma-Aldrich, Saint Louis, Mo., USA). The dishes were seeded with OP50 Escherichia coli as a food source. Duplicate dishes were used for each group. The treatment drug was dissolved in deionized water, and added to the dishes for the groups as explained below: […] Group #5: Glycyrrhizic acid in concentration of 0.25 mM. Group #6: untreated (control). NGM-agar treatment plates containing cholesterol (10 μg/mL) and 25 μM 5-Fluoro-2′-deoxyuridine (FUDR; Cat. No. F0503; Sigma-Aldrich, Saint Louis, Mo., USA) to suppress reproduction. […] The survival data for the various groups are also depicted in FIG. 17.

[2] = tested on: normal human colon fibroblast cell line CCD 841 CoN (CRL-1790, ATCC); assay: Senescence beta-galactosidase staining of aged normal human fibroblasts (Example 1); assay type: cell-based; conditions: lithium carbonate 0.15 μM and/or glycyrrhizic acid 0.25 mM; for effect on beta-galactosidase staining of the fibroblasts in comparison with non-treated controls or monotherapy / % green stained (average green area with and without background subtraction) / % green staining (green stained area of total original area) / visible positive beta-Galactosidase staining: 48 hours; for % green staining: per flask, 48 hours treatment, higher values = more aged cells; for % green stained (average green area with and without background subtraction) / % green staining (green stained area of total original area): per image, substance assigned through Table 3 (Area = Image #); for visible positive beta-Galactosidase staining: visual, light microscope 100× magnification
Procedure: Aging-associated beta-galactosidase is widely used as a biomarker of senescence. Here we investigated senescence-associated-beta-galactosidase activity of human colon fibroblast cells by visual assessment.
In this Example, the effect of treatment with lithium and glycyrrhizic acid separately, and as a fixed combination, was evaluated on normal human colon fibroblast cell line CCD 841 CoN (CRL-1790, ATCC).
Group 4 (flasks 10-12, control), the medium was changed to fresh compete EMEM medium without drugs as controls.
FIGS. 1-4 show pictures of the staining results for each of the groups, respectively.
Digital pictures showing the staining results for each of the 12 flasks were then independently examined and scored for percentage of area of green (positive) staining based on pixels, with and without background subtraction.
Higher values reflect more intensive green staining which corresponds to more aged cells.

[3] = lithium carbonate 0.15 μM, in the combination plus glycyrrhizic acid 0.25 mM
[4] = lithium carbonate 15 μM, in the combination plus glycyrrhizic acid 0.25 mM

Q: Which results are given for `O=C([O-])[O-].[Li+].[Li+]` [Li, lithium carbonate]?
A: Age in days at % mortality 100% ([1]; lithium carbonate 0.15 μM): 19 days; Age in days at % mortality 25% [1, 3]: 13 days; Age in days at % mortality 50% [1, 3]: 15 days; Age in days at % mortality 75% [1, 3]: 16 days; Age in days at % mortality 90% [1, 3]: 18 days; Restricted mean Days [1, 3]: 14.88 days; Age in days at % mortality 100% ([1]; lithium carbonate 15 μM): 19 days; Age in days at % mortality 25% [1, 4]: 14 days; Age in days at % mortality 50% [1, 4]: 15 days; Age in days at % mortality 75% [1, 4]: 16 days; Age in days at % mortality 90% [1, 4]: 18 days; Restricted mean Days [1, 4]: 14.56 days; longevity and survival (longevity effect) ([1]; glycyrrhizic acid 0.25 mM): not observed; effect on beta-galactosidase staining of the fibroblasts in comparison with non-treated controls or monotherapy [2]: did not appear to have significant effect; % green staining [2]: 6.25% and 2.83% and 5.24%; % green stained (average green area with and without background subtraction) [2]: 2.828% and 6.253% and 5.243%; % green staining (green stained area of total original area) [2]: 2.83% and 6.25% and 5.24%; visible positive beta-Galactosidase staining [2]: stained positively

Q: With `CC1(C)[C@@H](O[C@@H]2O[C@@H](C(=O)O)[C@H](O)[C@@H](O)[C@@H]2O[C@H]2O[C@@H](C(=O)O)[C@H](O)[C@@H](O)[C@@H]2O)CC[C@]2(C)[C@@H]1CC[C@@]1(C)[C@H]2C(=O)C=C2[C@H]3C[C@@](C)(C(=O)O)CC[C@@]3(C)CC[C@@]21C` [G acid, (3β,20β)-20-carboxy-11-oxo-30-norolean-12-en-3-yl 2-O-β-D-glucopyranuronosyl-α-D-glucopyranosiduronic acid] as the compound, how does the “Age in days at % mortality 25%” value ([1]; glycyrrhizic acid 0.25 mM) read?
A: Its value is 14 days.

Q: And the “Age in days at % mortality 50%” value ([1]; glycyrrhizic acid 0.25 mM)?
A: Its value is 16 days.

Q: And the “Age in days at % mortality 75%” value ([1]; glycyrrhizic acid 0.25 mM)?
A: Its value is 18 days.

Q: What about the “Age in days at % mortality 90%” value ([1]; glycyrrhizic acid 0.25 mM) of the same compound?
A: The value was 19 days.

Q: What about the “Age in days at % mortality 100%” value ([1]; glycyrrhizic acid 0.25 mM) of the same compound?
A: Its value is 20 days.

Q: And the “Restricted mean Days” value ([1]; glycyrrhizic acid 0.25 mM)?
A: Its value is 16.06 days.

Q: And the “longevity and survival (longevity effect)” value ([1]; glycyrrhizic acid 0.25 mM)?
A: Its value is “not observed”.

Q: What about the “effect on beta-galactosidase staining of the fibroblasts in comparison with non-treated controls or monotherapy” value [2] of the same compound?
A: The value was “did not appear to have significant effect”.

Q: And the “% green staining” value [2]?
A: Its value is 9.1% and 10.03% and 6.91%.

Q: What about the “% green stained (average green area with and without background subtraction)” value [2] of the same compound?
A: The value was 6.908% and 9.104% and 10.03%.

Q: What about the “% green staining (green stained area of total original area)” value [2] of the same compound?
A: The value was 6.91% and 9.1% and 10.03%.

Q: And the “visible positive beta-Galactosidase staining” value [2]?
A: Its value is “stained positively”.

— patent publication US20200046746A1, “ANTI-AGING COMPOSITIONS AND METHODS FOR USING SAME” (Prescient Pharma LLC, priority 2015, published 2020)
